For one data set, the system named is excess submental fat. In words: Randomized, double-blind, placebo-controlled trial of topical latanoprost on the submental area. It counts as in vivo, human. Conditions: adults, submental skin 50 cm^2, applied at bedtime, washed after 8-10 hours, 42 days. The procedure:
A randomized, double-blind, placebo-controlled trial of topical latanoprost applied to the submental area was conducted with adult men and women with excess submental fat. In one cohort, participants were randomized to receive latanoprost in an ethanol-based composition, or a matching placebo composition. In another cohort, participants were randomized to receive latanoprost in a petroleum jelly-based composition, or a matching placebo composition. The composition was applied at bedtime to a controlled 50 cm^2 area of submental skin. Participants were instructed to wash the 50 cm^2 area after 8-10 hours, so as to remove the composition. Treatment continued for 42 days.

For data set [1] the following is noted: humans; cited from earlier work.
Another data set concerns subcutaneous fat. Description: 42-day once-daily topical latanoprost trial in minipigs: reduction of subcutaneous fat (microscopy, ImageJ). Conditions: minipig, 42 days. It counts as in vivo. The procedure:
A randomized, placebo-controlled trial of topical latanoprost was conducted on male and female minipigs. Animals were randomized to no treatment, placebo (vehicle only), latanoprost 0.16%, or latanoprost 0.8% in an emulsion consisting essentially of water, poloxamer, lecithin, and isopropyl palmitate. The treatment was applied once daily to a 400 cm^2 area on the dorsum, with a semi-occlusive dressing. Treatment continued for 42 days.
Animals received a full panel of local and systemic safety assessments over the course of the study. Plasma toxicokinetics (TK) were assessed at various timepoints. After 42 days of treatment, animals were sacrificed. Samples of skin and subcutaneous fat were dissected from the treatment area in a controlled fashion and submitted for microscopic examination by a veterinary pathologist who was not informed of the compound tested or its therapeutic purpose.
Reduction of subcutaneous fat thickness was quantified using ImageJ software. In the high-dose group the mean reduction was 2.2 cubic centimeters of fat per 100 cm^2 of treated skin.

In data set [2] the test system is lower lid steatoblepharon. Description: Randomized, double-masked, placebo-controlled trial of latanoprost ointment on lower eyelids (steatoblepharon). It counts as in vivo, human. Conditions: adults, lower eyelids once nightly, washed after 8-10 hours, 10 weeks. The procedure:
A randomized, double-masked, placebo-controlled trial of latanoprost ointment applied to lower eyelids was conducted with adult men and women with lower lid steatoblepharon, i.e., eye bags. Participants received a kit comprising a tube of latanoprost ointment and instructions to apply the topical composition to the lower eyelids once nightly at bedtime. Participants were instructed to wash the lower eyelids 8-10 hours after ointment application, so as to remove the ointment or residue thereof. Treatment continued for 10 weeks.

The conditions of data set [3]: cited from earlier work.
A short description of data set [4]: 91-day once-daily latanoprost ointment, plasma PK after last dose in minipigs. It counts as in vivo. The conditions noted are these: both sexes, topical or ocular, 0.5 % w/w; minipig, topical (percutaneous) latanoprost; first-order fit of 24, 48, 72 h plasma values; read-out: terminal elimination half-life. The procedure: A pharmacokinetic (PK) experiment was conducted on male and female minipigs (n=6 per sex). Ointment comprising latanoprost 0.5% w/w in a vehicle comprising petroleum jelly and isopropyl myristate was applied once daily for 91 days to skin over 10% of body surface area. After the last topical application, plasma PK was assessed by sampling all animals through 24 hours, and in 2 animals per sex over for an additional 48 hours.
(See Sjoquist B et al., The pharmacokinetics of a new antiglaucoma drug, latanoprost, in the rabbit, Drug Metabol […] 1998; 26:745-754; and Sjoquist B and Stjernschantz J, Ocular and systemic pharmacokinetics of latanoprost in humans, Surv Ophthalmol 2002; 47:S6-S12).

Like-named read-outs stand apart in the source and are kept apart here.

As for `CC(C)OC(=O)CCC/C=C\C[C@@H]1[C@@H](CC[C@@H](O)CCc2ccccc2)[C@H](O)C[C@@H]1O` [latanoprost], the tolerability entry (in the data set with excess submental fat; in data set [2]) was “well tolerated” throughout. Besides, the half-life in plasma result in data set [1] was “about 17 minutes”. Also, the “subcutaneous fat on microscopic examination” value in the data set on subcutaneous fat (0.16% and 0.8% once daily) is listed as “Dose-dependent depletion of subcutaneous fat”. For the same compound, the “mean reduction of subcutaneous fat” value with subcutaneous fat (high-dose group) is 2.2 cubic centimeters of fat per 100 cm^2 of treated skin.
Take `O=C(O)CCC/C=C\C[C@@H]1[C@@H](CC[C@@H](O)CCc2ccccc2)[C@H](O)C[C@@H]1O` [latanoprost free acid]: the half-life (in general, how long it takes for the measured level to halve) in data set [3] (after intravenous administration) is 9 to 17 min; in data set [3] (after ocular administration) it was 17 to 85 min; in data set [3] (latanoprost administered intravenously or ophthalmically) it was 9 to 85 min; in data set [4], 1080 to 1440 min.

The values are drawn from patent publication US10188661B2, “Topical dosage regimen” (Topokine Therapeutics, Inc., priority 2014, dated 2019).
